Results on 5 molecules are retold here after patent publication US5565444A, “Osteogenesis promoter and osteoporosis remedy” (LTT Institute Co., Ltd., priority 1993, dated 1996).

For data set [1] the following is noted: background report, cited from earlier work.
In data set [2] the test system is Osteogenic Precursor Cells in Bone Marrow. As to the kind of experiment: Effects on the number of osteogenic precursor cells in bone marrow, Experiment 2 (FCFU formation after subcutaneous administration). It counts as in vivo. Particulars: 7 successive days, Lewis rat, N = 4. How it is done: (§1) After the invention compound was administered to a 7-weeks old Wistar or Lewis rat intraperitoneally (Experiment 1) or dorsi-subcutaneously (Experiment 2) for 7 successive days, the femurs and tibias were excised. Marrow cells were collected from the bones so obtained, followed by incubation in a 25-cm^2 culture flask for 7 days. For the incubation, the αMEM medium containing 15% fetal calf serum was used. Subsequent to giemsa or alkaline phosphatase staining, the number of fibroblast colony forming units on the culture flask was counted. The number of the fibroblast colony forming units (=FCFUs) is known to correlate with the in vitro ostogenesis. The total number of FCFUs and the number of FCFUs positive to alkaline phosphatase are shown in Table 1 and Table 2, respectively. Experiment 1:
Influence of the subcutaneous administration of
the invention compounds and testosterone for 7
successive days on the formation of FCFUs:
The number of FCFUs (after 7 days) (Lewis rat N = 4)

The nature of data set [3]: Improving effects on the bone mass reduction in postovariectomy osteoporosis (bone-salt amount by DXA). The following applies: three times a week, 3 months, FIGS. 3-6. It counts as in vivo, female Wistar rat (ovariectomized). How it is done: From a 7-weeks old female Wistar rat, the ovaria were both excised. Three months after that, the administration of a drug was started. As the drug, 11β-OH-^4 -A or dihydroepiandrosterone (DHEA) was dorsisubcutaneously administered three times a week, each, at 1 mg/kg. After the drug administration was continued for 3 months, the femurs and shinbones were collected and the bone-salt amount was measured at three places, that is, the proximal end, diaphysis and distal end. The measurements of the bone-salt amount were conducted using an Aloka DCS-600 model by dual energy X-ray absorptiometry (DXA).

The subject of a further data set is musculus levator ani. As to the kind of experiment: Anabolic action, Hershberge method (1). It counts as in vivo, castrated Wistar male rat. Particulars: 0.3 mg/rat/day subcutaneous, 10 successive days; FIG. 8. The protocol: (§2) (1) In accordance with the Hershberge method, a castrated, 4-weeks old, Wistar, male rat (6 rats per group) was subcutaneously administered with 11-OH-Δ^4- A at 0.1-0.3 mg/rat/day for 10 successive days. Similarly, a vehicle (sesame oil) was administered to the Sham-operated group and a control group, and testosterone propionate (T.P.) was administered at 0.1 mg/rat/day as a positive control. On the day following the completion of the administration, the anterior lobe of prostate and the musculus levator ani were excised and weighed. From a change in the weight of the anterior lobe of the prostate and the musculus levator ani, androgenic action and anabolic action were studied.

Data set [4] concerns Osteogenic Precursor Cells in Bone Marrow. As to the kind of experiment: Effects on the number of osteogenic precursor cells in bone marrow, Experiment 1 (FCFU formation after intraperitoneal administration). It counts as in vivo. The following applies: 1 mg/kg intraperitoneal, 7 successive days; Wistar rat, N = 4; after 7 days incubation. The protocol:
as §1
Influence of the intraperitoneal administration of
the invention compound at 1 mg/kg for 7 successive
days on the formation of FCFUs:
The number of FCFUs (after 7 days) (Wistar rat N = 4)

For the next data set, the system named is osteocalcin. As to the kind of experiment: Effects on serum osteocalcin (radioimmunoassay). It counts as in vivo, Wistar rat. How it is done: A 7-weeks old Wistar rat was intraperitoneally administered at 0.1 mg/kg with 11β-OH-Δ^4 -A for 7 successive days and the concentration of osteocalcin in the serum was measured by radioimmunoassay.
The nature of a further data set: Acute toxicity test. Particulars: in vivo, sc; subcutaneous, Wistar rat. The protocol: An acute toxicity test of the invention compound 11β-OH-Δ^4 -A was conducted in the following manner.
To a Wistar rat, 11β-OH-Δ^4 -A was subcutaneously administered in an amount considered to be an intoxicating dose. The conditions of the rat were observed and at the same time, the LD50 value was determined.

Data set [5] deals with osteogenic precursor cells. The data set can be described thus: Improving effects on the osteogenesis depression in postovariectomy osteoporosis (FCFU forming ability). It counts as in vivo, female Wistar rat (ovariectomized). How it is done: From a 7-weeks old female Wistar rat, the ovaria were both excised and three months after that, administration of a drug was started. As the drug, 11β-OH-Δ^4 -A, was administered dorsi-subcutaneously three times a week, each, at 0.1 mg/kg or 1 mg/kg. Subsequent to the administration of the drug for 1 month, the femurs and shinbones were collected. From the right femur and both the shinbones, osteoblasts were collected and the formation of colonies (FCFUs) of osteogenic precursor cells was observed.

The subject of data set [6] is anterior lobe of prostate. As to the kind of experiment: Androgenic action, Hershberge method (1). The following applies: 10 successive days, FIG. 8. It counts as in vivo, castrated Wistar male rat. How it is done:
as §2

Read-outs that look alike come from different tables or passages of the source.

Take estrogen: the “effect on bone mass of ovariectomized animals” value in [1] is reported as “evident curative effect for a decrease in the bone mass of an ovariectomized animal”.

Take `C[C@]12CC[C@H]3[C@@H](CCC4=CC(=O)CC[C@@]43C)[C@@H]1CC[C@@H]2O` [Testosterone, reference compound]: in data set [2] (1 mg/kg subcutaneous), the “The number of FCFUs positive for alkaline phosphatase” value (“The number of FCFUs positive” below) stood at 62 ± 5 and the “The total FCFU number” value stood at 149 ± 5.

For the molecule `C[C@]12C=CC(=O)C=C1CC[C@@H]1[C@@H]2[C@@H](O)C[C@]2(C)C(=O)CC[C@@H]12` [11β-OH-Δ^1,4 -A, 11β-hydroxy-1,4-androstadiene-3,17-dione], the entries for the “The number of FCFUs positive” value in data set [2] (0.1 mg/kg subcutaneous) and in [2] (1 mg/kg subcutaneous) were 85 ± 11 and 117 ± 12, respectively. Moreover, the “The total FCFU number” value stood at 178 ± 20 in data set [2] (0.1 mg/kg subcutaneous) and 217 ± 22 in data set [2] (1 mg/kg subcutaneous).

Regarding `C[C@]12CC[C@H](O)CC1=CC[C@@H]1[C@@H]2CC[C@]2(C)C(=O)CC[C@@H]12` [dihydroepiandrosterone (DHEA), dihydroepiandrosterone], the “effect on bone mass of ovariectomized animals” value is recorded as “extremely weak” in data set [1] and “bone-salt improving effects on the ovariectomized rat” in [1] (listed as dihydroepiandrosterone).

One may read the LD50 as the dose expected to kill half of the subjects tested. As to `C[C@]12CCC(=O)C=C1CC[C@@H]1[C@@H]2[C@@H](O)C[C@]2(C)C(=O)CC[C@@H]12` [11β-OH-Δ^4 -A, 11β-hydroxy-4-androstene-3,17-dione], the “bone-salt amount at places of the femur” value in [3] (1 mg/kg dorsi-subcutaneous) was “recovered to similar levels to those of the Sham-operated rat”. Moreover, in [3] (1 mg/kg each, dorsi-subcutaneous), the “bone-salt effects compared with dihydroepiandrosterone” value is on record as “more potent than those of dihydroepiandrosterone”. Also, the “weight of the musculus levator ani (anabolic action)” value with musculus levator ani is “An increase in the weight of the musculus levator ani”. Further, the entries for the “The number of FCFUs positive” value in [4], in [2] (0.1 mg/kg subcutaneous) and in data set [2] (1 mg/kg subcutaneous) were 40 ± 11, 96 ± 16 and 128 ± 19, respectively. In addition, the “The total FCFU number” value in [4] was found to be 160 ± 35; in [2] (0.1 mg/kg subcutaneous), 180 ± 9; in data set [2] (1 mg/kg subcutaneous), 189 ± 26. The Serum osteocalcin concentration in the data set with osteocalcin (0.1 mg/kg intraperitoneal, 7 successive days) is 72.6 ± 2.7 ng/mL; in the data set on osteocalcin (5 mg/kg), 75.5 ± 1.0 ng/mL. Further, the “concentration of osteocalcin (in words)” value in the data set on osteocalcin (successive administration) is reported as “increase the concentration of osteocalcin”. This molecule displayed an LD50 in the data set “Acute toxicity test” of at least 1000 mg/kg. For the same molecule, the “osteogenesis depression observed after the ovariectomy” value in [5] (0.1 mg/kg thrice a week for a month) is “successfully normalized back the osteogenesis depression observed after the ovariectomy”. Also, the FCFU formation entry in data set [5] (0.1 mg/kg, dorsi-subcutaneous, three times a week, 1 month, FIG. 2) was “a marked increase in the FCFU formation”. Besides, the “weight of the prostate” value in data set [6] (0.1-0.3 mg/rat/day (0.6-1.8 mg/kg/day) subcutaneous) is recorded as “a significant increase in the weight of the prostate”. Also, the Androgenic action entry in data set [6] (0.1-0.3 mg/rat/day subcutaneous) is “very weak”.
